This is an account of results in patent US20020019543A1, “Thiol derivative, metallo-beta-lactamase inhibitors” (priority 2000, published 2002).

The subject of one experiment is E. coli BL21(DE3). In words: Carbapenem sensitivity (MIC) of E. coli BL21(DE3) with and without IMP-1 expression. In kind it is cell-based. The conditions noted are these: for fold reduced sensitivity caused by basal (uninduced) IMP-1 expression: pET30a-IMP-1 in E. coli BL21(DE3). The protocol:
A laboratory strain of E.coli engineered to express IMP-1 was used to evaluate the ability of thiol derivatives to reverse metallo-β-lactamase-mediated carbapenem resistance in bacteria. Native IMP-1, which included the N-terminal periplasmic signal sequence, was PCR amplified from […] isolated from a carbapenem resistant P. aeruginosa clinical isolate, CL56673, and cloned into the pET30a vector. […] Various concentrations of IMP-1 inhibitor were added to the bacterial growth medium and their capacity to effect a four-fold or greater increase in sensitivity to the carbapenem was monitored.

Experiment [1] relates to E. coli BL21(DE3)/pET30a-IMP-1. In kind it is cell-based. The following applies: thioester conc giving 4-fold increase in sensitivity to the Merck carbapenem (0.25x MIC), no visible growth after 20 hours at 35° C. An excerpt: A laboratory strain of E.coli engineered to express IMP-1 was used to evaluate the ability of thiol derivatives to reverse metallo-β-lactamase-mediated carbapenem resistance in bacteria. Native IMP-1, which included the N-terminal periplasmic signal sequence, was PCR amplified from […] isolated from a carbapenem resistant P. aeruginosa clinical isolate, CL56673, and cloned into the pET30a vector.

On to `C[C@@H](O)[C@H]1C(=O)N2C(C(=O)O)=C(SCCN=CN)C[C@H]12` [impenem], for which the “fold reduced sensitivity caused by basal (uninduced) IMP-1 expression” value (“fold reduced sensitivity caused by basal” for short) in the experiment with E. coli BL21(DE3) is listed as 4 fold. Regarding `CC(=O)N[C@H](C)C(=O)S[C@H](Cc1ccc(-c2ccccc2)cc1)C(=O)O` [Example 13], the “Effective conc for 4-fold reduction of MIC in E. coli” value (shortened to “Effective conc for 4-fold reduction”) in experiment [1] was determined as 6.3 µM. Turning to `CC(=O)SC(Cc1ccc2oc3ccccc3c2c1)C(=O)O` (centres unmarked) [Example 78], the “Effective conc for 4-fold reduction” value in experiment [1] is “≦0.1 μM”. Regarding “(1S,5R,6S)-1-methyl-2-{7-[4-(aminocarbonylmethyl)-1,4-diazoniabicyclo(2.2.2)octan-1-yl]methyl-fluoren-9-on-3-yl}-6-(1R-hydroxyethyl)-carbapen-2-em-3-carboxylate chloride”, in the experiment on E. coli BL21(DE3) (E. coli BL21(DE3), before expression of IMP-1), the “minimum inhibitory concentration (MIC), without IMP-1 expression” value lay in the range of 0.06 to 0.12 µg/mL. Besides, in the experiment with E. coli BL21(DE3) (E. coli BL21(DE3)/pET30a-IMP-1, basal IMP-1 expression), the “minimum inhibitory concentration (MIC), with IMP-1 expression” value was in the range of 16 to 32 µg/mL. In addition, the “fold reduced sensitivity caused by basal” value with E. coli BL21(DE3) is recorded as 500 fold.

On to `C[C@@H](O)[C@H]1C(=O)N2C(C(=O)O)=C(S[C@@H]3CN[C@H](C(=O)N(C)C)C3)[C@H](C)[C@H]12` [meropenem], for which, in the experiment with E. coli BL21(DE3), the “fold reduced sensitivity caused by basal” value is listed as 64 fold. Take `O=C(SC(Cc1ccc2oc3ccccc3c2c1)C(=O)O)c1ccccc1` (centres unmarked) [Example 79]: the “Effective conc for 4-fold reduction” value in experiment [1] was 0.2 µM.
